Test results published in paper PMC8963254, “Effects of Lysine N-ζ-Methylation in Ultrashort Tetrabasic Lipopeptides (UTBLPs) on the Potentiation of Rifampicin, Novobiocin, and Niclosamide in Gram-Negative Bacteria” (Antibiotics, 2022).
Converted amounts (≈) assume the structure as drawn. Where two headings read alike, the source gives them in different places. Non-standard residues stand in square brackets, D forms with d. Residues, ends and D or L forms follow the SMILES beside them. *: point of attachment. Lys(Me) = CNCCCC[C@H](N)C(=O)O; Octanoyl = CCCCCCCC(=O)*

Legend:
[1] = tested on: A. baumannii ATCC 17978; assay type: cell-based, Acinetobacter baumannii; details: ATCC 17978, 18 h
In short: (§1)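 MIC was determined by broth microdilution following CLSI guidelines. Serially varied compound concentrations were incubated with bacterial inoculum at 5 × 10^5 CFU/mL (final) for 18 h at 37 °C. Growth was scored as turbidity by absorbance at 590 nm.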

[2] = tested on: E. coli 94393; assay: microbe, parasite or virus in culture; assay type: cell-based, Escherichia coli; details: 94393, 18 h
In short: as §1

[3] = tested on: E. coli 94474; assay: microbe, parasite or virus in culture; assay type: cell-based, Escherichia coli; details: 94474, 18 h
In short: as §1

[4] = tested on: A. baumannii AB027; assay: microbe, parasite or virus in culture; assay type: cell-based, Acinetobacter baumannii; details: AB027, 18 h
In short: as §1

[5] = tested on: A. baumannii AB92247; assay: microbe, parasite or virus in culture; assay type: cell-based, Acinetobacter baumannii; details: AB92247, 18 h
In short: as §1

[6] = tested on: MRSA ATCC 33592; assay type: cell-based, Staphylococcus aureus
In short: (§2)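 Values derive from a two-agent checkerboard with an 18 h, 37 °C incubation. FICI cut-offs: ≤0.5 synergy, 0.5–4 additive, >4 antagonism.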

[7] = tested on: S. aureus ATCC 29213; assay type: cell-based, Staphylococcus aureus
In short: as §2

[8] = tested on: E. coli ATCC 25922; assay type: cell-based, Escherichia coli; details: ATCC 25922, 18 h
In short: as §1

[9] = tested on: E. cloacae 118564; assay: microbe, parasite or virus in culture; assay type: cell-based, Enterobacter cloacae; details: 118564, 18 h
In short: as §1

[10] = tested on: P. aeruginosa PAO1; assay type: cell-based, Pseudomonas aeruginosa; details: PAO1, 18 h
In short: as §1

[11] = tested on: A. baumannii AB027; assay type: cell-based, Acinetobacter baumannii; details: for MICUTBLP: UTBLP alone
In short: as §2

[12] = tested on: A. baumannii ATCC 17978; assay type: cell-based, Acinetobacter baumannii; details: for MICUTBLP: UTBLP alone
In short: as §2

[13] = tested on: A. baumannii 92247; assay type: cell-based, Acinetobacter baumannii; details: for MICUTBLP: UTBLP alone
In short: as §2

[14] = tested on: E. coli ATCC 25922; assay type: cell-based, Escherichia coli; details: for MICUTBLP: UTBLP alone
In short: as §2

[15] = tested on: MRSE 61589; assay type: cell-based, Staphylococcus epidermidis
In short: as §2

[16] = tested on: MSSE 81388; assay type: cell-based, Staphylococcus epidermidis
In short: as §2

[17] = UTBLP alone, plate with chloramphenicol
[18] = UTBLP in combination with chloramphenicol
[19] = chloramphenicol in combination with the UTBLP
[20] = UTBLP in combination with novobiocin
[21] = UTBLP in combination with rifampicin
[22] = novobiocin in combination with the UTBLP
[23] = rifampicin in combination with the UTBLP
[24] = UTBLP in combination with niclosamide
[25] = niclosamide in combination with the UTBLP

CCCCCCCC(=O)NCCCC[C@H](NC(=O)CCCCCCC)C(=O)N[C@@H](CCCCNC)C(=O)N[C@@H](CCCCNC)C(=O)N[C@@H](CCCCNC)C(=O)N[C@@H](CCCCNC)C(N)=O [UTBLP 6] (Octanoyl-K(Octanoyl)[Lys(Me)][Lys(Me)][Lys(Me)][Lys(Me)]-NH2)
MIC [1]: 64 µg/mL (≈ 66.2 µM) | MIC [2]: 64 µg/mL (≈ 66.2 µM) | MIC [3]: > 128 µg/mL | MIC [4]: > 128 µg/mL | MIC [5]: 32 µg/mL (≈ 33.1 µM) | Interpretation ([6]; UTBLP + chloramphenicol): Additive (0.5 < x ≤ 4 is additive) | MICUTBLP [6, 17]: > 128 µg/mL | MICUTBLP [MICcombo] [6, 18]: 0.25 µg/mL | MICchloramphenicol [MICcombo] [6, 19]: 64 µg/mL | MICUTBLP [7, 17]: 128 µg/mL | MICUTBLP [MICcombo] [7, 18]: 16 µg/mL | MICchloramphenicol [MICcombo] [7, 19]: 4 µg/mL | MIC [8]: 32 µg/mL (≈ 33.1 µM) | MIC [9]: > 128 µg/mL | MIC [10]: >128 µg/mL | Interpretation ([11]; UTBLP + novobiocin): Synergy (FICI ≤ 0.5 is synergistic) | Interpretation ([11]; UTBLP + rifampicin): Synergy (FICI ≤ 0.5 is synergistic) | MICUTBLP ([11]; plate with novobiocin): > 128 µg/mL | MICUTBLP ([11]; plate with rifampicin): > 128 µg/mL | MICUTBLP [MICcombo] [11, 20]: 16 µg/mL | MICUTBLP [MICcombo] [11, 21]: 16 µg/mL | MICantibiotic [MICcombo] [11, 22]: 0.031 µg/mL | MICantibiotic [MICcombo] [11, 23]: 0.002 µg/mL | Interpretation ([12]; UTBLP + chloramphenicol): Additive (0.5 < x ≤ 4 is additive) | Interpretation ([12]; UTBLP + niclosamide): Synergy (FICI ≤ 0.5 is synergistic) | Interpretation ([12]; UTBLP + novobiocin): Synergy (FICI ≤ 0.5 is synergistic) | Interpretation ([12]; UTBLP + rifampicin): Synergy (FICI ≤ 0.5 is synergistic) | MICUTBLP ([12]; plate with chloramphenicol): 64 µg/mL | MICUTBLP ([12]; plate with niclosamide): 64 µg/mL | MICUTBLP ([12]; plate with novobiocin): 64 µg/mL | MICUTBLP ([12]; plate with rifampicin): 64 µg/mL | MICUTBLP [MICcombo] [12, 18]: 8 µg/mL | MICUTBLP [MICcombo] [12, 24]: 1 µg/mL | MICUTBLP [MICcombo] [12, 20]: 4 µg/mL | MICUTBLP [MICcombo] [12, 21]: 2 µg/mL | MICantibiotic [MICcombo] [12, 19]: 32 µg/mL | MICantibiotic [MICcombo] [12, 25]: 4 µg/mL | MICantibiotic [MICcombo] [12, 22]: 0.25 µg/mL | MICantibiotic [MICcombo] [12, 23]: 0.031 µg/mL | Interpretation ([13]; UTBLP + novobiocin): Synergy (FICI ≤ 0.5 is synergistic) | Interpretation ([13]; UTBLP + rifampicin): Synergy (FICI ≤ 0.5 is synergistic) | MICUTBLP ([13]; plate with novobiocin): 32 µg/mL | MICUTBLP ([13]; plate with rifampicin): 32 µg/mL | MICUTBLP [MICcombo] [13, 20]: 1 µg/mL | MICUTBLP [MICcombo] [13, 21]: 0.5 µg/mL | MICantibiotic [MICcombo] [13, 22]: 0.125 µg/mL | MICantibiotic [MICcombo] [13, 23]: 0.063 µg/mL | Interpretation ([14]; UTBLP + chloramphenicol): Synergy (FICI ≤ 0.5 is synergistic) | Interpretation ([14]; UTBLP + niclosamide): Synergy (FICI ≤ 0.5 is synergistic) | Interpretation ([14]; UTBLP + novobiocin): Synergy (FICI ≤ 0.5 is synergistic) | Interpretation ([14]; UTBLP + rifampicin): Synergy (FICI ≤ 0.5 is synergistic) | MICUTBLP ([14]; plate with chloramphenicol): 32 µg/mL | MICUTBLP ([14]; plate with niclosamide): 32 µg/mL | MICUTBLP ([14]; plate with novobiocin): 32 µg/mL | MICUTBLP ([14]; plate with rifampicin): 32 µg/mL | MICUTBLP [MICcombo] [14, 18]: 8 µg/mL | MICUTBLP [MICcombo] [14, 24]: 1 µg/mL | MICUTBLP [MICcombo] [14, 20]: 2 µg/mL | MICUTBLP [MICcombo] [14, 21]: 4 µg/mL | MICantibiotic [MICcombo] [14, 19]: 2 µg/mL | MICantibiotic [MICcombo] [14, 25]: 2 µg/mL | MICantibiotic [MICcombo] [14, 22]: 0.5 µg/mL | MICantibiotic [MICcombo] [14, 23]: 0.063 µg/mL | Interpretation ([15]; UTBLP + chloramphenicol): Additive (0.5 < x ≤ 4 is additive) | MICUTBLP [15, 17]: 16 µg/mL | MICUTBLP [MICcombo] [15, 18]: 8 µg/mL | MICchloramphenicol [MICcombo] [15, 19]: 4 µg/mL | Interpretation ([16]; UTBLP + chloramphenicol): Additive (0.5 < x ≤ 4 is additive) | MICUTBLP [16, 17]: 16 µg/mL | MICUTBLP [MICcombo] [16, 18]: 0.25 µg/mL | MICchloramphenicol [MICcombo] [16, 19]: 4 µg/mL
